These results are taken from patent US20250228864A1, “THERAPIES FOR THE TREATMENT OF INFLAMMATORY BOWEL DISEASE” (Gilead Sciences, Inc., priority 2023, published 2025).

This assay deals with IL10−/− knockout mouse colitis model. Nature of the assay: Example 2: efficacy in mouse IL10−/− knockout colitis model. It counts as in vivo. As to conditions: 21 days. How it is done:
The following study was conducted to evaluate the efficacy of an α4β7 integrin small molecule inhibitor relative to no treatment and to an IL-12/IL-23 inhibitor (anti-p40 antibody a murine surrogate of ustekinumab). […] Endpoint analysis included measurement of colon lamina propria lymphocytes, and histology scoring of the colon tissue.
Mice were treated for three (3) weeks with Formula (III) mixed with food chow (0.125%), and 4 mg/kg anti-p40 dosed intraperitoneally every four (4) days […].
Female IL-10 deficient C57CL/6 mice (aged 12 weeks at study inception) were used in this study. All animal experiments were conducted according to Swiss animal well fare law and approved by the local animal welfare authority of Zurich County (Tierversuchskommission Zürich, Zurich, Switzerland, License No. ZH256-2014).
Mice were administered either standard chow diet (Harlan Teklad Global Diets 2014, TD2014) or standard chow diet plus 0.125% of in chow. Formula (III) schedule was ad libitum while the Anti-p40 antibody was administered via intraperitoneal injection on day 1 and then every four days for three weeks.
The compound was added and mixed into the chow powder at 0.125% concentration, anti-p40 antibody was diluted in phosphate buffered saline (2 mg/mL) (anti-p40 antibody, a murine surrogate of ustekinumab) then dosed at 4 mg/kg every four days by intraperitoneal injection. […] The mice were then treated for three (3) weeks (21-days). On Day 21, mice were sacrificed, blood and tissue samples were collected for further analysis. While untreated IL-10−/− knockout mice progressively lost body weight and manifested colitis activity (measured by weight loss, stool frequency and stool consistency).
Mice were anesthetized with and mixture of ketamine (90-120 mg/kg-1 body weight, Vétoquinol, Bern, Switzerland) and Xylazine (8 mg/kg-1 body weight, Bayer, Lyssach, Switzerland) by intraperitoneal injection. Colonoscopies were performed as described in Becker C, Fantini M C, Neurath M F. High resolution colonoscopy in live mice. Nat. Protoc, 2006; 1:2900-4. The procedure was recorded with a Karl Storz Tele Pack Pal 20,043,020 (Karl Storz Endoskope, Tuttlingen, Germany). Scoring of the colonoscopy was done in accordance with the Murine Endoscopic Index of Colitis Severity (MEICS) scoring system as described in Becker C., Fantini M. C., Neurath M. F. High resolution colonoscopy in live mice. Nat. Protoc. 2006; 1:2900-2904. doi: 10.1038/nprot.2006.446. The following five (5) parameters were assessed: (1) transparency of the colon; (2) changes of the vascular pattern; (3) fibrin visible; (4) granularity of the mucosal surface; and (5) stool consistency.
Tissue Extraction: Mouse colons were extracted and fixed in 4% formalin, embedded in paraffin and then cut into 5-μm sections. The colon sections where then deparaffinized and stained with hematoxylin and eosin.
Mouse colons were extracted and opened up in a longitudinal orientation, placed in a 15 mL falcon tube, rinsed with PBS (Gibco, Thermo Fisher Scientific, Carlsbad, CA, USA). The colon was then cut into 2 mm^2 sized samples and washed with 2% FBS HBSS (Thermo Fisher Scientific). The supernatant was discarded, resuspended in HBSS supplemented with 2 mM EDTA (Thermo Fisher Scientific) and then incubated at 37° C. on a shaker (300 rpm) for 15 minutes. Upon completion of the incubation the tubes were vigorously shaken, the supernatant was carefully discarded, and the sample was washed with HBSS. Next, the samples were resuspended in a digestion buffer consisting of Dispase (0.6 mg/mL, Gibco) supplemented Collagenase IV (0.4 mg/mL; Clostridium Histolyticum, Sigma-Aldrich). The solution was incubated for 20 minutes on a 37° C. shaker (300 rpm). Upon completion, the samples were homogenized by passing the solution through a 18+1.5-gauge needle. Samples where then stained with TH1, TH17, Neutrophils, and Treg antibodies followed by preforming Flow cytometry analysis of the mice immune cells of the colon tissue. […]

Regarding `CCOC(=O)[C@H](Cc1ccc(-n2c(=O)c3ccncc3n(C)c2=O)c2ncccc12)NC(=O)c1c(C)cc(N2CCOC[C@@H]2C(F)(F)F)cc1F` (atropisomer, axis not shown) [Formula (III)], the “proinflammatory cytokines detected in the blood” value is “reduced proinflammatory cytokines”. Besides, the “disease activity (weight loss, stool frequency, stool consistency)” value (0.125% in chow ad libitum) was “reduced disease activity”. The body weight loss result (0.125% in chow ad libitum, vs untreated IL-10−/− mice) is given as “ameliorated body weight loss”. In addition, for the setting “0.125% in chow”, the “TH1 cells in colon tissue (flow cytometry)” value is listed as “significantly reduced”, the “TH17 cells in colon tissue (flow cytometry)” value is “significantly reduced”, the “frequency of the Treg in colon tissue (flow cytometry)” value is “without affecting” and the “neutrophils in colon tissue (flow cytometry)” value is “significantly reduced”. Also, the histopathology score entry (0.125% in chow, compared to the non-treatment group) is “reduced histopathology score”. Also, for the setting “0.125% in chow, over the non-treatment group”, the “colonoscopy score (MEICS)” value is “significantly improved”. Moreover, the intestine inflammation entry (single agent) is “significantly ameliorates”.
